In this assay the target is T1, DPAP1 (Plasmodium falciparum, UniProt Q8IIJ9).
T1 sequence (Q8IIJ9 370-599 limits assumed): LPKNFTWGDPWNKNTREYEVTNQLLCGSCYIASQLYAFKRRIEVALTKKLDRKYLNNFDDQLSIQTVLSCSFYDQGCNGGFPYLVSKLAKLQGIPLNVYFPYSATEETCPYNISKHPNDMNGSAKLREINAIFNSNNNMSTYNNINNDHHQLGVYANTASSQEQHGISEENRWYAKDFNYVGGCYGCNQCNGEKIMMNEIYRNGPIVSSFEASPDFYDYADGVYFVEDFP
T1 sequence (Q8IIJ9 28-209 limits assumed): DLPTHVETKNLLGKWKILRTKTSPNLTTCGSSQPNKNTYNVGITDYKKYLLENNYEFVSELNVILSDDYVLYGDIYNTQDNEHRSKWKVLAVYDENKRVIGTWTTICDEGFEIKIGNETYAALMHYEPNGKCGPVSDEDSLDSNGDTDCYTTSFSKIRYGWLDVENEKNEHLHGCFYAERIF
T1 sequence (Q8IIJ9 600-700 limits assumed): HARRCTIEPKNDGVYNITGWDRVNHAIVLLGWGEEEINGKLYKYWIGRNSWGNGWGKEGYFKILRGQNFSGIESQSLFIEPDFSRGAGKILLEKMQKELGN
Kind of assay: biochemical. The format is biochemical. Conditions: for DPAP Primary hit (Hit = 1): 10 μM HTS, 0 not defined; for inhibition at 10 µM: 10 μM compound, parasite lysates, (PR)2Rho, 30 min end-point, read-out: DPAP1 % Inhibition @ 10 uM.

The term inhibition denotes the change of the read-out against control, counted positive when it falls.

The structures appear in SMILES notation.

`COc1ccc(C2CC(=O)N3CN(Cc4ccccc4)CSC3=C2C#N)cc1OC` (centres unmarked) [SMDC170071, COc1ccc(cc1OC)C2CC(=O)N3CN(Cc4ccccc4)CSC3=C2C#N]: the “DPAP Primary hit (Hit = 1)” value is reported as 0 and the inhibition at 10 µM came to 7%.

For `N#CC1=C2SCN(Cc3ccco3)CN2C(=O)CC1c1ccc(Cl)cc1` (centres unmarked) [SMDC170081, Clc1ccc(cc1)C2CC(=O)N3CN(Cc4occc4)CSC3=C2C#N], the “DPAP Primary hit (Hit = 1)” value worked out at 0 and the inhibition at 10 µM was found to be 42%.

Turning to `N#CC1=C2SCN(Cc3ccccc3)CN2C(=O)CC1c1ccc(Cl)cc1` (centres unmarked) [SMDC170091, Clc1ccc(cc1)C2CC(=O)N3CN(Cc4ccccc4)CSC3=C2C#N], the “DPAP Primary hit (Hit = 1)” value amounted to 0 and the inhibition at 10 µM is 42%.

For `Cc1ccc(C2CC(=O)N3CN(C4CCCCC4)CSC3=C2C#N)cc1` (centres unmarked) [SMDC170101, Cc1ccc(cc1)C2CC(=O)N3CN(CSC3=C2C#N)C4CCCCC4], the “DPAP Primary hit (Hit = 1)” value was 0 and the inhibition at 10 µM stood at 26%.

On to `Cc1ccccc1C1CC(=O)N2CN(Cc3ccco3)CSC2=C1C#N` (centres unmarked) [SMDC170102, Cc1ccccc1C2CC(=O)N3CN(Cc4occc4)CSC3=C2C#N], for which the “DPAP Primary hit (Hit = 1)” value was determined as 0 and the inhibition at 10 µM stood at 26%.

Turning to `CCc1ccc(C2CC(=O)N3CN(C4CCCCC4)CSC3=C2C#N)cc1` (centres unmarked) [SMDC170103, CCc1ccc(cc1)C2CC(=O)N3CN(CSC3=C2C#N)C4CCCCC4], the “DPAP Primary hit (Hit = 1)” value was 1 and the inhibition at 10 µM came to 65%.

As to `CCOc1ccc(C2CC(=O)N3CN(C)CSC3=C2C#N)cc1OC` (centres unmarked) [SMDC170104, CCOc1ccc(cc1OC)C2CC(=O)N3CN(C)CSC3=C2C#N], the “DPAP Primary hit (Hit = 1)” value came out at 0 and the inhibition at 10 µM was 48%.

In the case of `N#CC1=C2SCN(Cc3ccccc3)CN2C(=O)CC1c1cccs1` (centres unmarked) [SMDC170105, O=C1CC(C(=C2SCN(Cc3ccccc3)CN12)C#N)c4cccs4], the “DPAP Primary hit (Hit = 1)” value is recorded as 0 and the inhibition at 10 µM was determined as 41%.

Take `COc1ccc2ccccc2c1C1CC(=O)N2CN(Cc3ccccc3)CSC2=C1C#N` (centres unmarked) [SMDC170106, COc1ccc2ccccc2c1C3CC(=O)N4CN(Cc5ccccc5)CSC4=C3C#N]: the “DPAP Primary hit (Hit = 1)” value came out at 0 and the inhibition at 10 µM was 36%.

With `Cc1ccccc1C1CC(=O)N2CN(C3CCCCC3)CSC2=C1C#N` (centres unmarked) [SMDC170112, Cc1ccccc1C2CC(=O)N3CN(CSC3=C2C#N)C4CCCCC4], the “DPAP Primary hit (Hit = 1)” value is on record as 0 and the inhibition at 10 µM was 24%.

As to `CCc1ccc(C2CC(=O)N3CN(Cc4ccccc4)CSC3=C2C#N)cc1` (centres unmarked) [SMDC170113, CCc1ccc(cc1)C2CC(=O)N3CN(Cc4ccccc4)CSC3=C2C#N], the “DPAP Primary hit (Hit = 1)” value turned out to be 0 and the inhibition at 10 µM amounted to 39%.

Consider `CN1CSC2=C(C#N)C(c3ccccc3)CC(=O)N2C1` (centres unmarked) [SMDC170114, CN1CSC2=C(C#N)C(CC(=O)N2C1)c3ccccc3], for which the “DPAP Primary hit (Hit = 1)” value is 0 and the inhibition at 10 µM is 33%.

For `CN1CSC2=C(C#N)C(c3ccc(Br)cc3)CC(=O)N2C1` (centres unmarked) [SMDC170115, CN1CSC2=C(C#N)C(CC(=O)N2C1)c3ccc(Br)cc3], the “DPAP Primary hit (Hit = 1)” value is reported as 0 and the inhibition at 10 µM amounted to 43%.

`COc1ccc2ccccc2c1C1CC(=O)N2CN(C3CCCCC3)CSC2=C1C#N` (centres unmarked) [SMDC170116, COc1ccc2ccccc2c1C3CC(=O)N4CN(CSC4=C3C#N)C5CCCCC5]: the “DPAP Primary hit (Hit = 1)” value came out at 0 and the inhibition at 10 µM came to 27%.

In the case of `Cc1ccccc1C1CC(=O)N2CN(Cc3ccccc3)CSC2=C1C#N` (centres unmarked) [SMDC170122, Cc1ccccc1C2CC(=O)N3CN(Cc4ccccc4)CSC3=C2C#N], the “DPAP Primary hit (Hit = 1)” value stood at 0 and the inhibition at 10 µM is 31%.

On to `CSc1ccc(C2CC(=O)N3CN(C)CSC3=C2C#N)cc1` (centres unmarked) [SMDC170124, CSc1ccc(cc1)C2CC(=O)N3CN(C)CSC3=C2C#N], for which the “DPAP Primary hit (Hit = 1)” value is 1 and the inhibition at 10 µM came to 75%.
